Measured values published in PubChem BioAssay AID1996.
≈ marks a conversion by molar mass, not a printed value.

details: buffer; pH 7.4; 200.0 µM

solubility kinetic	Compound
33.9 µg/mL (≈ 116 µM)	COc1ccc(N=Cc2c(OC)ccc3ccccc23)cc1
2.3 µg/mL (≈ 6.83 µM)	CC(NC(=S)Nc1ccc(OC(F)F)c(Cl)c1)C(C)(C)C (centres undefined)
8.1 µg/mL (≈ 23.7 µM)	c1ccc(-c2nc3c4ccccc4ccn3c2CN2CCCCC2)cc1
43.7 µg/mL (≈ 130 µM)	Cc1cccnc1NC(=O)c1ccc(OCc2c(C)noc2C)cc1
> 44.3 µg/mL	O=C(c1ccccc1)N1CCN(C(=O)c2cccnc2)CC1
> 43.3 µg/mL	Cn1cc(SCC(=O)NC2CCCC2)c2ccccc21
> 47.7 µg/mL	CCOC(=O)CC(=O)COc1nc2cc3c(nc2o1)CCCC3
50.7 µg/mL (≈ 148 µM)	CCCC(C)NC(=O)COC(=O)c1cccc(NS(C)(=O)=O)c1 (centres undefined)
46.6 µg/mL (≈ 144 µM)	O=C(NCC1CCCO1)C1CC(=O)N(c2cccc(Cl)c2)C1 (centres undefined)
> 37.3 µg/mL	Cn1cccc1C(=O)NCc1ccc(Cl)cc1
> 49.3 µg/mL	CC(C)N(Cc1ccccc1)C(=O)COC(=O)c1cc[n+]([O-])cc1
> 45.8 µg/mL	CC(=O)Nc1ccc(C(=O)COC(=O)c2ccco2)c(F)c1
45.7 µg/mL (≈ 146 µM)	CNC(=S)Nc1cccc(S(=O)(=O)NC2=NCCC2)c1
> 48.1 µg/mL	O=C(c1ccco1)N1CCN(S(=O)(=O)c2ccccc2)CC1
> 57.2 µg/mL	COc1cccc(NC(=O)COC(=O)C2=NN(c3ccccc3)C(=O)CC2)c1
> 73.1 µg/mL	CSCC[C@H](NC(=O)c1cccc(S(=O)(=O)N2CCN(C)CC2)c1)c1nc2ccccc2[nH]1
27.5 µg/mL (≈ 125 µM)	CCc1cccc2c1NC(=O)C21OCCO1
2 µg/mL (≈ 6.11 µM)	Cc1ccn2c(NC(=O)c3ccccc3)c(-c3ccccc3)nc2c1
> 41.2 µg/mL	Cc1cc(C)c(NC(=O)CN2CCCCCC2)c(C)c1
> 23.7 µg/mL	Cc1ccc2ncccc2c1N
> 42.8 µg/mL	Nc1nc(-c2ccc(NC(=O)c3ccco3)cc2)cs1
1.1 µg/mL (≈ 3.69 µM)	Cc1cccc(NC(=S)NC(=O)Cc2ccccc2)c1C
> 42.7 µg/mL	Nc1nc(SCC(=O)Nc2cccnc2Cl)n[nH]1
28.7 µg/mL (≈ 128 µM)	CN1C(=O)CSC1=Nc1ccc(F)cc1

solubility kinetic	Compound
> 30.8 µg/mL	O=C1NC(=S)N/C1=C/c1cccnc1
< 0.3 µg/mL	Cc1ccc(NC(=O)OCc2cc(-c3ccccc3)on2)cc1
> 46.4 µg/mL	CC(=O)N1CCN(c2nc(N)c(C#N)c(CC#N)c2C#N)CC1
1.2 µg/mL (≈ 4.12 µM)	Brc1cnc2ccccc2c1N1CCCCC1
> 42.4 µg/mL	Cc1cccc(NC(=O)NC2(C)CCS(=O)(=O)C2)c1 (centres undefined)
24.2 µg/mL (≈ 81.1 µM)	Cc1ccc(S(=O)(=O)N2CCCCC2C)cc1[N+](=O)[O-] (centres undefined)
> 51.9 µg/mL	Cn1c2c(c(=O)n(C)c1=O)C(CC(=O)Nc1ccccc1F)C(=O)N2 (centres undefined)
> 56.9 µg/mL	O=C(COC(=O)C1COc2ccccc2O1)Nc1ccccc1OC(F)F (centres undefined)
3.2 µg/mL (≈ 11.2 µM)	O=c1c2c([N+](=O)[O-])cc([N+](=O)[O-])cc2nc2ccccn12
< 0.2 µg/mL	O=[N+]([O-])c1cccc2c3c([nH]c12)CCCC3
> 74.5 µg/mL	CC(Oc1ccc2c(-c3ccccc3)cc(=O)oc2c1)C(=O)NC(Cc1c[nH]c2ccccc12)C(=O)O (centres undefined)
> 26.4 µg/mL	Nc1cccc(CN2CCCC2)c1
24.2 µg/mL (≈ 137 µM)	Nc1no[n+]([O-])c1-c1ccccc1
4.6 µg/mL (≈ 14.3 µM)	CSc1nc2c(c(=O)[nH]1)C(c1cccc(Cl)c1)CC(=O)N2 (centres undefined)
> 49.4 µg/mL	CCOc1ccc(CCNC(=O)c2cnc(C)cn2)cc1OCC
> 41.6 µg/mL	CC(OC(=O)CCOc1ccccc1)C(=O)NC1CC1 (centres undefined)
> 45 µg/mL	O=[N+]([O-])c1ccc(Sc2n[nH]c(-c3ccncc3)n2)nc1
26.4 µg/mL (≈ 107 µM)	O=C(O)C(Sc1ccncn1)c1ccccc1 (centres undefined)
7.5 µg/mL (≈ 24.1 µM)	Nc1nc(CCl)nc(N(c2ccccc2)c2ccccc2)n1
> 49.1 µg/mL	CN(C)c1nc2c(c(=O)[nH]c(=O)n2C)n1CCCc1ccccc1
0.9 µg/mL (≈ 2.34 µM)	O=C(Nc1nc2ccccc2n1CCN1CCOCC1)c1ccc(Cl)cc1
> 24.2 µg/mL	Cn1cnc([N+](=O)[O-])c1Cl
35.2 µg/mL (≈ 147 µM)	O=C1ON=C(c2ccccc2)/C1=C\c1ccco1
> 51.9 µg/mL	Br.Cn1c(=N)n(CC(=O)c2ccccc2)c2ccccc21

solubility kinetic	Compound
14.8 µg/mL (≈ 45.5 µM)	COc1ccc(N2CCC(CNC(=O)Nc3ccccc3)C2)cc1 (centres undefined)
> 50 µg/mL	CC(C)N1C(=O)CCC1C(=O)N1CCN(c2ccc(F)cc2)CC1 (centres undefined)
12.6 µg/mL (≈ 38.6 µM)	Cc1ccc(NC(=O)CCCn2c(=O)oc3ccccc32)c(O)c1
> 45 µg/mL	Cc1nc([N+](=O)[O-])c(C(=O)OCc2ccccc2C#N)n1C
> 47.8 µg/mL	O=C(c1cccc(F)c1)N1CCCC(C(=O)N2CCCCC2)C1 (centres undefined)
1.1 µg/mL (≈ 4.11 µM)	CC(C)NC(=O)C1c2ccccc2Oc2ccccc21
39.3 µg/mL (≈ 112 µM)	CCN(Cc1cc2ccccc2[nH]c1=O)C(=O)c1cccc([N+](=O)[O-])c1
> 46.7 µg/mL	O=C(COC(=O)c1c(F)cccc1F)NCc1cccs1
7 µg/mL (≈ 22.3 µM)	Cc1cc(O)c(N=Cc2cc3c(cc2[N+](=O)[O-])OCO3)cc1C
8.4 µg/mL (≈ 24.2 µM)	COC(=O)c1c(SCC(=O)Nc2ccc(C)cc2)nc(=O)[nH]c1C
0.6 µg/mL (≈ 1.75 µM)	CC(C)(C)c1nc(SCC(=O)NC2CCCC2)c2ccccc2n1
> 41.8 µg/mL	CSC1=C(C#N)C(=O)NC(c2ccccc2O)S1 (centres undefined)
> 49 µg/mL	CCCC(=O)Nc1ccccc1NC(=O)c1ccc2c(c1)OCO2
> 32.7 µg/mL	CC(C)c1ccccc1-n1cc[nH]c1=S
> 55 µg/mL	Cc1cc(=O)n2c3ccccc3n(CC(O)CN3CCOCC3)c2c1C#N (centres undefined)
> 32.4 µg/mL	Cc1cccc(CC(=O)Nc2ccon2)c1
> 47.8 µg/mL	Cc1cc(C(=O)N2CCN(c3ccccc3Cl)CC2)c(C)o1
> 46.9 µg/mL	COCCOC(=O)C1=C(C)NC(=S)NC1c1cccs1 (centres undefined)
1 µg/mL (≈ 3.58 µM)	COC(=O)c1sccc1NC(=O)c1ccccc1F
> 30.8 µg/mL	CNC(=O)Nc1ccc2nc(C)oc2c1
> 42.2 µg/mL	CCn1c(NCc2ccc(OC)cc2)nc2ccccc21
> 45.4 µg/mL	COc1ccc(SCCC(=O)NCc2ccncc2)cc1
> 47 µg/mL	Cc1ccc[n+](CC(=O)N2CCCCC2)c1C.[Br-]
> 39.8 µg/mL	COC(=O)c1ccn(CC(=O)NC2CCCCC2)n1

solubility kinetic	Compound
35.3 µg/mL (≈ 75 µM)	N#Cc1ccc(CN2CCN(C(=O)CNS(=O)(=O)c3ccc4c(c3)OCCCO4)CC2)cc1
45.7 µg/mL (≈ 140 µM)	COc1cccc2c1O/C(=N\O)C(C(=O)Nc1ccc(C)cc1)C2 (centres undefined)
14.9 µg/mL (≈ 42 µM)	CNC(=O)c1ccc(Nc2nc(-c3ccccc3)nc3ccccc23)cc1
3 µg/mL (≈ 12 µM)	S=C(NCc1ccccc1)Nc1nccs1
39.6 µg/mL (≈ 118 µM)	O=C(COc1ccccc1Cl)NCCNC(=O)c1cnccn1
< 0.7 µg/mL	Cc1ccc(C(=O)OCN2C(=O)c3ccccc3C2=O)c(O)c1
> 50.5 µg/mL	CC(C)(C)OC(=O)N1CCC(CNC(=O)c2ccc(F)cc2)CC1
42.4 µg/mL (≈ 129 µM)	COc1ccc(NC(=S)N2c3ccccc3CC2C)cc1OC (centres undefined)
> 43 µg/mL	COC(=O)c1cc(S(=O)(=O)N2CCCC(C)C2)c[nH]1 (centres undefined)
0.3 µg/mL (≈ 0.992 µM)	O=C(Nc1ccc(F)cc1F)NC1CCCc2ccccc21 (centres undefined)
9.6 µg/mL (≈ 26.9 µM)	CN1C(=O)c2cccc3c(S(=O)(=O)Nc4ccccc4F)ccc1c23
21.4 µg/mL (≈ 59.1 µM)	CN(C(=O)COC(=O)C12CC3CC(CC(Cl)(C3)C1)C2)c1ccccc1
19.1 µg/mL (≈ 63 µM)	CC1CCC(N2CCN(c3ccc([N+](=O)[O-])cc3)CC2)CC1 (centres undefined)
< 0.7 µg/mL	O=C(Nc1ccc(O)cc1)c1ccccc1OCc1ccccc1
> 52 µg/mL	CC1(C)Cc2nc3sc4c(NCCO)ncnc4c3cc2CS1
48 µg/mL (≈ 141 µM)	CN(C)S(=O)(=O)c1ccc(NC(=O)Cn2ccsc2=N)cc1
> 52.4 µg/mL	CN(c1cccc(NC(=O)c2cccc([N+](=O)[O-])c2)c1)S(C)(=O)=O
15.2 µg/mL (≈ 44.1 µM)	CCOc1ccc(N2CC(C(=O)NC3CCCCCC3)CC2=O)cc1 (centres undefined)
> 53.3 µg/mL	CC(=O)N1CCN(c2ccc([N+](=O)[O-])c(NCc3cccnc3)c2)CC1
4.2 µg/mL (≈ 17.6 µM)	c1ccc(-c2ccc(-c3ccccn3)s2)nc1
> 45.9 µg/mL	N#Cc1ccc(CC(C(=O)O)N2Cc3ccccc3C2=O)cc1 (centres undefined)
> 53 µg/mL	CCCCN(C)CCNC(=O)C(NC(=O)C1CCC(C)CC1)C(C)C (centres undefined)
5.4 µg/mL (≈ 14.7 µM)	COc1ccc(C(=O)NC2CCN(C(=O)NCc3ccccc3)CC2)cc1
> 44.9 µg/mL	O=C(O)c1cccc(N2C(=O)CSC2c2ccccc2)c1 (centres undefined)

solubility kinetic	Compound
> 48.4 µg/mL	COc1ccc(COCC(O)CN2CCC(C(N)=O)CC2)cc1 (centres undefined)
> 48.4 µg/mL	COCCC(=O)Nc1ccc2c(c1)CN(C(=O)CSC)CC2
> 47 µg/mL	O=C(C[n+]1cccc(O)c1)NCc1ccc(Cl)cc1.[Cl-]
8.7 µg/mL (≈ 27.8 µM)	O=C(NCCC1=CCCCC1)c1c(O)nc2ccccn2c1=O
> 39.9 µg/mL	CC(NC(=O)CN1CCOCC1)c1ccc(F)cc1 (centres undefined)
42 µg/mL (≈ 130 µM)	CCOc1ccc(CN(C)C(=O)Cc2c[nH]c3ccccc23)cc1
38.5 µg/mL (≈ 128 µM)	C=CCn1cccc(C(=O)Nc2ccc(SC)cc2)c1=O
> 32.3 µg/mL	O=C(O)CCC(=O)N1CCC[C@H]1C(=O)O
49.5 µg/mL (≈ 143 µM)	O=C(CN1C(=O)C2CCCCC2C1=O)OCC(=O)c1ccc(F)cc1 (centres undefined)
2 µg/mL (≈ 6.24 µM)	O=C(NCc1ccccc1)c1ccc(NC(=O)c2ccco2)cc1
30 µg/mL (≈ 111 µM)	O=C1CCCc2ccccc2N1Cc1ccc(F)cc1
> 47.3 µg/mL	CC(C)N1CC(C(=O)Nc2ccc(Cl)c(Cl)c2)CC1=O (centres undefined)
> 41.3 µg/mL	Nc1[nH]c(=O)[nH]c(=O)c1N=Nc1ccc(C(=O)O)cc1
> 36.7 µg/mL	Cc1nn2c(-c3ccncc3)ccnc2c1Cl
34.3 µg/mL (≈ 128 µM)	Cc1cccc2cc(C#N)c(N3CCC(O)CC3)nc12
0.6 µg/mL (≈ 1.85 µM)	FC(F)(F)c1cccnc1Oc1ccc(C2=NCCS2)cc1
> 56.3 µg/mL	O=C(COC(=O)Cn1cnc2ccccc21)Nc1ccc(OC(F)F)cc1
5.9 µg/mL (≈ 13.4 µM)	Cc1ccc(S(=O)(=O)/N=C(/Nc2ccc([N+](=O)[O-])cc2[N+](=O)[O-])c2ccccc2)cc1
45.7 µg/mL (≈ 133 µM)	Cc1ccc(S(=O)(=O)CCN2CCN(c3ccccc3)CC2)cc1
> 47.2 µg/mL	CS(=O)(=O)N1CCC(C(=O)NCc2ccc(F)cc2)CC1

Compound	solubility kinetic
CCn1c(C)c(C(=O)NCCc2ccccc2)c2cc(OC)ccc21	23 µg/mL (≈ 68.4 µM)
C=CCSc1nc2c(c(-c3ccsc3)c1C#N)CN(C)CC2	23 µg/mL (≈ 70.2 µM)
CN1CCN(c2ccc(Cl)cc2N)CC1	30.6 µg/mL (≈ 136 µM)
